Results reported in patent US7645878B2, “Process for preparing quinazoline Rho-kinase inhibitors and intermediates thereof” (Bayer Healthcare LLC, priority 2002, dated 2010).

A melting point of 267 to 272 °C was found for `c1ccc2c(Nc3ccc4[nH]ncc4c3)nc(-c3ccc4c(c3)CCO4)nc2c1` [Example 9, 2-(2,3-dihydro-1-benzofuran-5-yl)-N-(1H-indazol-5-yl)-4-quinazolinamine] in this work.
